Experimental data reported in patent US20090221559A1 (priority 2005, published 2009).
Where two headings read alike, the source gives them in different places.

Columns and labels:
[1] = test system: HCV replicon RNA replication in Huh-7 luc/neo (Huh-Luc) cells; experiment: HCV replicon assay (stable replicon cell reporter assay, luciferase read-out); format: cell-based, HCV type 1b
Method in brief: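 Huh-7 cells stably carry a bicistronic HCV 1b NS3-NS5B subgenomic replicon with firefly luciferase and neo markers. Cells were plated with compound across a concentration range and incubated three days. Replication was measured as luciferase activity to give dose-response curves.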

[2] = target: T1, HCV NS5B polymerase (His-tagged, C-terminal 21 amino acid deleted NS5B, HC-J4) (Hepatitis C virus genotype 1b, UniProt O92972); experiment: NS5b polymerase assay (biochemical RdRp assay, 3H-GTP incorporation, SPA beads); set-up: species or system HCV genotype 1b
T1 construct: The cDNA encoding NS5B amino acid 1-570 (HC-J4, genotype 1b); His tag (His6, from pET-21b) (C); made in house; host or cells: E. coli BL21 (DE3)
Method in brief: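 His-tagged C-terminal-21-aa-deleted NS5B (genotype 1b, HC-J4) at 200 nM was preincubated 15 min at RT with compound on 5′-biotinylated oligo(rG13)/poly(rC) template/primer before NTPs. Reaction with 600 nM GTP plus 0.1 μCi 3H-GTP and 5 mM MgCl2 in Tris pH 7.5 ran 2 h at 25 °C. Stopped with EDTA/SPA beads for incorporation counting.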

[3] = Hepatitis C virus, Huh-7, 72 h, read-out: Replicon Assay EC50, Huh-Luc cells, three days incubation, luciferase activity
[4] = NS5B Polymerase Assay IC50, 200 nM enzyme, 3H-GTP incorporation, 2 h at 25° C.
[5] = Huh-Luc cells, three days incubation, luciferase activity, read-out: Replicon Assay EC50
[6] = 200 nM enzyme, 3H-GTP incorporation, 2 h at 25° C., read-out: NS5B Polymerase Assay IC50
[7] = Hepatitis C virus, Huh-7, 72 h, read-out: Replicon Assay EC50 (μM), Huh-Luc cells, incubation of three days, luciferase activity
[8] = NS5B Polymerase Assay IC50 (μM)

T1 sequence (O92972 2417-3000, looked up, stated change not applied): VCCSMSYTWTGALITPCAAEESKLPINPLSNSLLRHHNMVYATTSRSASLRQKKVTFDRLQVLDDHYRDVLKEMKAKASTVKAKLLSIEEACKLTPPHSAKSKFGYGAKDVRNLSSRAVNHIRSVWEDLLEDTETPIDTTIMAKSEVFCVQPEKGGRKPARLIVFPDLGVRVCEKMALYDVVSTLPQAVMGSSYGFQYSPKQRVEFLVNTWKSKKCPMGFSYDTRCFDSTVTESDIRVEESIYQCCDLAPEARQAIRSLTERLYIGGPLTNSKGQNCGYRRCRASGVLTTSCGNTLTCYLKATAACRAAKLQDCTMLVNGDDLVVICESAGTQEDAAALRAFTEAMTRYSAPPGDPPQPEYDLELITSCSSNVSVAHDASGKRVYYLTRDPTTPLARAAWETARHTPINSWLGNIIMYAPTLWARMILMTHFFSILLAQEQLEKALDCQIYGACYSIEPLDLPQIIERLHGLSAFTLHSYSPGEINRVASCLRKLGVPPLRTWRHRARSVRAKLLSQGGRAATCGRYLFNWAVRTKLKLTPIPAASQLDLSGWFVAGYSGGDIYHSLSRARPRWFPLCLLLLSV

| SMILES | EC50 [1, 3] [µM] | IC50 [2, 4] [µM] | EC50 [1, 7] [µM] | IC50 [2, 8] [µM] | other results |
| --- | --- | --- | --- | --- | --- |
| CC(=O)N1c2ccccc2NC2=C(C(=O)CC(C)(C)C2)C1c1ccc(-c2cccc([N+](=O)[O-])c2)o1 (stereo not shown) [compound 250] | 7.95 | > 42.6 | – | – | – |
| CC1(C)CC(=O)C2=C(C1)Nc1ccccc1N(C(=O)c1ccccc1)C2c1ccc(Br)cc1 (stereo not shown) [compound 74] | > 26.7 | > 42.7 | – | – | – |
| COc1ccc(C2C3=C(CC(c4ccc(Cl)cc4)CC3=O)Nc3ccccc3N2C(=O)C(F)(F)F)cc1 (mixture of isomers) [compound 200] | – | – | – | – | EC50 [1, 5]: 9.57 µM; IC50 [2, 6]: > 33.3 µM |
| CCC(=O)N1c2ccccc2NC2=C(C(=O)CC(C)(C)C2)C1c1ccc(-c2ccccc2[N+](=O)[O-])o1 (stereo not shown) [compound 241] | 17.1 | > 42.7 | – | – | – |
| CC(=O)N1c2ccccc2NC2=C(C(=O)CC(C)(C)C2)C1c1ccc(N(C)C)cc1 (stereo not shown) [compound 122] | > 32 | > 42.7 | – | – | – |
| CCC(=O)N1c2ccccc2NC2=C(C(=O)CC(c3ccc(OC)cc3)C2)C1c1ccc(Cl)cc1 (stereo not shown) [compound 227] | – | – | – | – | EC50 [1, 5]: 17 µM; IC50 [2, 6]: > 33.3 µM |
| CCC(=O)N1c2ccccc2NC2=C(C(=O)CC(C)(C)C2)C1c1ccc(Br)s1 (stereo not shown) [compound 249] | 3.66 | > 42.7 | – | – | – |
| CC1(C)CC(=O)C2=C(C1)Nc1ccccc1N(C(=O)C(F)(F)F)C2c1ccco1 (stereo not shown) [compound 276] | > 32 | > 42.7 | – | – | – |
| CCCCCC(=O)N1c2ccccc2NC2=C(C(=O)CC(c3ccc(Cl)cc3)C2)C1c1ccc(Cl)cc1 (stereo not shown) [compound 164] | 18.5 | > 33.3 | – | – | – |
| COc1ccc(C2C3=C(CC(C)(C)CC3=O)Nc3ccccc3N2C(C)=O)cc1OCc1ccccc1 (stereo not shown) [compound 48] | – | – | – | – | EC50 [1, 5]: 16.7 µM; IC50 [2, 6]: 15.9 µM |
| CC1(C)CC(=O)C2=C(C1)Nc1ccccc1N(C(=O)c1ccccc1)C2c1ccc(Cl)cc1 (stereo not shown) [compound 88] | 6.1 | 18.5 | – | – | – |
| CC(=O)N1c2ccccc2NC2=C(C(=O)CC(C)(C)C2)C1c1ccc(O)cc1 (stereo not shown) [compound 137, 10-acetyl-11-(4-hydroxyphenyl)-3,3-dimethyl-2,3,4,5,10,11-hexahydro-1H-dibenzo[b,e][1,4]diazepin-1-one] | > 100 | > 133 | – | – | – |
| COc1cccc2c1NC1=C(C(=O)CC(C)(C)C1)C(c1ccc(Cl)cc1Cl)N2C(C)=O (stereo not shown) [compound 320] | 33 | 6.77 | – | – | – |
| COc1ccc([C@@H]2CC(=O)C3=C(C2)Nc2ccccc2N[C@H]3c2cc3c(cc2[N+](=O)[O-])OCO3)cc1 [compound 485] | – | – | 3.39 | > 42.7 | – |
| CCC(=O)N1c2ccccc2NC2=C(C(=O)CC(C)(C)C2)C1c1ccccc1OC(C)CC (stereo not shown) [compound 61] | 9.45 | > 42.7 | – | – | – |
| CC1(C)CC(=O)C2=C(C1)Nc1ccccc1NC2c1cccc(Oc2ccccc2)c1 (stereo not shown) [compound 433, 11-(3-phenoxyphenyl)-3,3-dimethyl-2,3,4,5,10,11-hexahydro-1H-dibenzo[b,e][1,4]diazepin-1-one] | – | – | 3.81 | > 133 | – |
| O=C1CC(c2ccc(Cl)cc2)CC2=C1C(c1cccc(F)c1)Nc1ccccc1N2 (stereo not shown) [compound 380] | – | – | 8.63 | > 42.7 | – |
| O=C1CC(c2ccc(Cl)cc2)CC2=C1C(c1cccc(Cl)c1)N(C(=O)C(F)(F)F)c1ccccc1N2 (mixture of isomers) [compound 208] | – | – | – | – | EC50 [1, 5]: 11.1 µM; IC50 [2, 6]: > 33.3 µM |
| COc1ccc(C2C3=C(CC(c4ccc(C)cc4)CC3=O)Nc3ccccc3N2C(=O)C(F)(F)F)cc1 (mixture of isomers) [compound 194] | – | – | – | – | EC50 [1, 5]: 5.22 µM; IC50 [2, 6]: > 33.3 µM |
| COc1ccc([C@@H]2CC(=O)C3=C(C2)Nc2ccccc2N[C@H]3c2c[nH]c3ccccc23)cc1 [compound 489] | – | – | 5.91 | > 42.7 | – |
| CC1(C)CC(=O)C2=C(C1)Nc1ccccc1NC2/C(Br)=C/c1ccccc1 (racemic) [compound 500, 11-(1-Bromo-2-phenylvinyl)-3,3-dimethyl-2,3,4,5,10,11-hexahydro-dibenzo[b,e][1,4]diazepin-1-one] | – | – | 26.5 | > 133 | – |

| SMILES | EC50 [1, 3] [µM] | IC50 [2, 4] [µM] | EC50 [1, 7] [µM] | IC50 [2, 8] [µM] | other results |
| --- | --- | --- | --- | --- | --- |
| O=C1C[C@@H](c2ccccc2)CC2=C1[C@H](c1ccc3c(c1)OCO3)Nc1ccc(C(=O)c3ccccc3)cc1N2 [compound 491] | – | – | 12.1 | > 42.7 | – |
| COc1cccc(C2Nc3ccccc3NC3=C2C(=O)CC(c2ccc(Cl)cc2)C3)c1OC (stereo not shown) [compound 348] | – | – | 4.48 | 29.6 | – |
| CCCOc1ccccc1C1C2=C(CC(C)(C)CC2=O)Nc2ccccc2N1C(=O)CC (stereo not shown) [compound 63] | 5 | > 42.7 | – | – | – |
| CC1(C)CC(=O)C2=C(C1)Nc1ccccc1N(C(=O)C(F)(F)F)C2c1cccc([N+](=O)[O-])c1 (stereo not shown) [compound 47] | 16.4 | > 42.7 | – | – | – |
| O=C1CC(c2ccccc2)CC2=C1C(c1cccc(Oc3ccccc3)c1)Nc1ccccc1N2 (stereo not shown) [compound 361] | – | – | 6.65 | > 42.7 | – |
| CC(C)C(=O)N1c2ccccc2NC2=C(C(=O)CC(C)(C)C2)C1c1ccc(Cl)cc1Cl (stereo not shown) [compound 28] | 5.52 | > 42.7 | – | – | – |
| CCCCC(=O)N1c2ccccc2NC2=C(C(=O)CC(C)(C)C2)C1c1ccccc1Cl (stereo not shown) [compound 66] | 23 | > 42.7 | – | – | – |
| COc1ccc(C2C3=C(CC(C)(C)CC3=O)Nc3ccccc3N2C(=O)c2ccc(Cl)cc2)cc1OC (stereo not shown) [compound 68] | 23.1 | > 42.7 | – | – | – |
| CC(=O)N1c2ccccc2NC2=C(C(=O)CC(C)(C)C2)C1c1ccc(-c2ccc([N+](=O)[O-])cc2Cl)o1 (stereo not shown) [compound 279] | 9.27 | > 42.7 | – | – | – |
| O=C1CC(c2ccc(Cl)cc2)CC2=C1C(c1ccc(C(F)(F)F)cc1)Nc1ccccc1N2 (stereo not shown) [compound 377] | – | – | 4.46 | > 42.7 | – |
| Cc1ccc(C2CC(=O)C3=C(C2)Nc2ccccc2NC3c2ccccc2Cl)cc1 (stereo not shown) [compound 411] | – | – | 17.9 | > 33.3 | – |
| CC1(C)CC(=O)C2=C(C1)Nc1ccccc1NC2c1c(F)cccc1Cl (stereo not shown) [compound 428] | – | – | 16 | > 42.7 | – |
| CC1(C)CC(=O)C2=C(C1)Nc1ccccc1NC2c1cccnc1 (stereo not shown) [compound 499] | – | – | > 32 | > 42.7 | – |
| CCC(=O)N1c2ccccc2NC2=C(C(=O)CC(c3ccc(OC)c(OC)c3)C2)C1c1cccc(Cl)c1 (mixture of isomers) [compound 193] | – | – | – | – | EC50 [1, 5]: 5.92 µM; IC50 [2, 6]: > 33.3 µM |
| CC(C)CC(=O)N1c2ccccc2NC2=C(C(=O)CC(C)(C)C2)C1c1cccs1 (stereo not shown) [compound 248] | 7.24 | > 42.6 | – | – | – |
| CCCCCC(=O)N1c2ccccc2NC2=C(C(=O)CC(c3ccccc3)C2)C1c1ccccc1F (stereo not shown) [compound 224] | – | – | – | – | EC50 [1, 5]: 16.1 µM; IC50 [2, 6]: > 33.3 µM |
| COc1ccc(C2CC(=O)C3=C(C2)Nc2ccccc2NC3c2ccc(OCc3ccccc3)c(OC)c2)cc1OC (stereo not shown) [compound 405] | – | – | 5.34 | > 42.7 | – |
| Cc1ccc(C2CC(=O)C3=C(C2)Nc2ccccc2NC3c2ccccc2F)cc1 (stereo not shown) [compound 412] | – | – | 16.7 | > 33.3 | – |
| COc1ccc(C2CC(=O)C3=C(C2)Nc2ccccc2NC3c2ccc(Cl)c([N+](=O)[O-])c2)cc1 (stereo not shown) [compound 389] | – | – | 5.58 | > 42.7 | – |
| COc1ccc(C2CC(=O)C3=C(C2)Nc2ccccc2NC3c2cccc(C)c2)cc1 (stereo not shown) [compound 391] | – | – | 18.5 | > 42.7 | – |
